Where “and” joins values, the source holds several entries; their conditions need not be identical. Identical values can stand only once.
Legend:
PI3Kδ = test system: PI3Kδ; set-up: method as in PMID 21378270, PMID 21803855, PMID 20959606, PMID 31506873; settings: cited from earlier work
[1] = test system: relapsed/refractory indolent non-Hodgkin's lymphoma (R/R iNHL); experiment: Phase 1 study: anti-tumor efficacy, investigator-assessed, modified Lugano criteria; format: in vivo, human
Procedure: Efficacy endpoints included ORR; duration of response (DOR); progression-free survival (PFS); time to first response (TTR); and change in tumor size from baseline. Response was assessed by investigators based on the modified Lugano Classification lymphoma response criteria (modified Lugano criteria). If complete response (CR) was achieved by CT- or MRI-based assessment (not including bone marrow biopsy), PET/CT was performed to assess metabolic response (except for patients whose FDG-avidity was “non-avid” in the screening test). Additionally, a bone marrow biopsy was also performed if complete metabolic response was confirmed by PET/CT-based assessment. For efficacy outcomes, the Clopper–Pearson method was used to obtain 95% confidence intervals (CIs) for ORR. The Kaplan–Meier method was used to estimate the DOR and PFS for each cohort and overall. Statistical analyses were performed using SAS® software version 9.4 (SAS Institute Inc., Cary, NC, USA).

basophil activation = test system: basophil activation; set-up: method as in PMID 30458930; settings: 60 mg/day; cited from earlier work
[2] = N = 9, median follow-up 17.5 months

## CN1CCC(c2ccccc2CC(C)(C)Nc2nc(N3CCOCC3)nc(-n3c(C(F)F)nc4ccccc43)n2)CC1 [zandelisib]
PI3Kδ
  target binding: > 5 h
[1]; 45 mg group
  median PFS: 11.1 months
[1]; 45 mg, n = 3
  Best overall response: Complete response: 0 (0.0) n (%)
  Best overall response: Partial response: 3 (100.0) n (%)
  Best overall response: Progressive disease: 0 n (%)
  Best overall response: Stable disease: 0 n (%)
  Objective response rate, % (95% CI): 100.0 (29.2–100.0) %
[1]; 60 mg group
  median DOR: 11.3 months
  median PFS: 13.3 months
[1]; 60 mg, n = 6
  Best overall response: Complete response: 2 (33.3) n (%)
  Best overall response: Partial response: 4 (66.7) n (%)
  Best overall response: Progressive disease: 0 n (%)
  Best overall response: Stable disease: 0 n (%)
  Objective response rate, % (95% CI): 100.0 (54.1–100.0) %
[1]; [2]
  median duration of response (DOR): 7.9 months and 7.9 (95% CI 2.8–14.7) months
  median progression-free survival (PFS): 11.1 months and 11.1 (95% CI 4.6–16.7) months
  median time to response (TTR): 1.9 months and 1.9 (95% CI 1.8–2.1) months
[1]; N = 9, 2 FL patients receiving 60 mg/day
  complete response (CR) rate: 22.2% and 22%
[1]; Total, N = 9
  Best overall response: Complete response: 2 (22.2) n (%)
  Best overall response: Partial response: 7 (77.8) n (%)
  Best overall response: Progressive disease: 0 n (%)
  Best overall response: Stable disease: 0 n (%)
  Objective response rate, % (95% CI): 100.0 (66.4–100.0) %
[1]; after 2 administration cycles
  patients achieved response at week 8: 8/9
[1]; all patients, N = 9
  decrease from baseline in the sum of perpendicular diameters: > 50%
[1]; cohort 1, 45 mg
  best overall response of partial response (PR): 3/3
[1]; cohort 2, 60 mg
  best overall response of CR: 2/6
  best overall response of PR: 4/6
[1]; of patients switched back to CS after PD
  patients regained response after switching back from IDT to CS: 2/4
Basophil activation
  target inhibition at trough plasma concentrations: ≥ 90%

From article PMC9668928, “Zandelisib (ME-401) in Japanese patients with relapsed or refractory indolent non-Hodgkin’s lymphoma: an open-label, multicenter, dose-escalation phase 1 study” (International Journal of Hematology, 2022)
